The results in this text go back to ChEMBL document CHEMBL1156865, “Chemical delivery system of metaiodobenzylguanidine (MIBG) to the central nervous system” (J Med Chem, 2010).

Some results are limits rather than exact numbers.

Data set [1] in a line: Stability in Sprague-Dawley rat blood at 10 MBq assessed as radioactive compound recovery. The data set is classed as ADME, tissue-based. Conditions: whole blood, read-out: Stability.
The nature of data set [2]: Stability in Sprague-Dawley rat brain assessed as unchanged parent compound level at 15 to 120 MBq, iv after 3 mins. The class given is ADME, organism-based. Conditions: read-out: Stability.
A short description of data set [3]: Stability in Sprague-Dawley rat brain assessed as unchanged parent compound level at 15 to 120 MBq, iv after 60 mins. The data set is classed as ADME, organism-based. Conditions: read-out: Stability.
For data set [4], the system named is Brain. The data set can be described thus: Stability in Sprague-Dawley rat brain assessed as polar radioactive metabolite level at 15 to 120 MBq, iv after 3 mins. The class given is ADME, organism-based. To be noted: in vivo, 0.05 h.
Data set [5] concerns Brain. The data set can be described thus: Stability in Sprague-Dawley rat brain assessed as polar radioactive metabolite level at 15 to 120 MBq, iv after 60 mins. The data set is classed as ADME, organism-based. Conditions: in vivo, 1 h.
Data set [6] has as its system Brain. As to the kind of experiment: Drug uptake in Sprague-Dawley rat brain at 15 to 120 MBq, iv after 3 mins. The data set is classed as ADME, organism-based. To be noted: in vivo, 0.05 h.
Data set [7] relates to Brain. As to the kind of experiment: Drug uptake in Sprague-Dawley rat brain at 15 to 120 MBq, iv after 60 mins. The class given is ADME, organism-based. Conditions: in vivo, 1 h.

Consider `[11CH3]N1C=C(C(=O)NC(=N)NCc2cccc(I)c2)Cc2ccccc21`, for which, in data set [1], the remaining at 10 MBq is > 90%. The remaining at 0.05 h in data set [2] worked out at 96%. Moreover, the remaining at 1 h in data set [3] was determined as 59%. Moreover, the Activity turned out to be 4% in data set [4] and 41% in data set [5]. Moreover, the values for the Drug uptake in data set [6] and in data set [7] were 0.1 % ID/g and 0.06 % ID/g, respectively.
